Experimental data as given in US20120195978A1, “CAPCNA PEPTIDE THERAPEUTICS FOR CANCER” (Indiana University Research and Technology Corpora, priority 2009, published 2012).
No end group written: not given here.

Assays:
[1] = system: U937 cells; assay: Cytotoxic effects of R9-linked caPCNA peptides, % cell death by flow cytometry; assay type: cell-based; settings: for Effect of alanine substitution on cytotoxic action of the peptide (in words): compared with unsubstituted R9-caPCNA peptide
Protocol: R9 refers to a cell penetrating peptide that includes a polyarginine sequence e.g., nine contiguous arginine residues. Alanine substitutions in the caPCNA peptide affect its cytotoxic action. U937 cells were treated with each alanine substituted peptide and the scrambled peptide and % cell death evaluated by flow cytometry.

[2] = system: HCC1937 cells lacking BRCA1; assay: MTT assay, caPCNA peptides alone and in combination with cisplatin; assay type: cell-based, human
Protocol: Breast cancer cells were obtained from a patient harboring a hereditary mutation in BRCA1, a major component of DNA double strand break repair (HCC1937 cells). HCC1937 is a near-tetraploid cell line from mammary gland whose cells are homozygous for a frameshift mutation in BRCA1. The cell line is available at ATCC.
MTT [3-(4,5-dimethylthiazol-2-yl)-2,5-diphenyltetrazolium bromide] assays were conducted with caPCNA peptides at a variety of time points both alone and in combination with a DNA damaging agent e.g., cisplatin in HCC1937 and HCC1937+wild-type BRCA1 cells. The MTT assay is based on the ability of a mitochondrial dehydrogenase enzyme from viable cells to cleave the tetrazolium rings of the pale yellow MTT dye and form dark blue formazan crystals. These formazan crystals are largely impermeable to cell membranes and thus accumulate within healthy cells. Solubilization of the cells by the addition of a detergent results in the liberation and solubilization of the crystals. The number of proliferating cells is directly proportional to the level of formazan product created. The color can then be quantified using a simple colorimetric assay. The results are read on a multiwall scanning spectrophotometer (ELISA reader). The peptides used in these experiments including caPCNA peptide, Q131A ([…] (SEQ ID NO: 5)), and P129A ([…] (SEQ ID NO: 3)) were ordered and obtained from Anaspec (Fremont, Calif.). ca PCNA peptide was dissolved in sterile 1×PBS solution to create a 1.5 mM stock concentration. caPCNA peptides with alanine substitutions (e.g., P129A (SEQ ID NO: 3) and Q131A (SEQ ID NO: 5)) were dissolved in sterile 1×PBS solution to create 1.0 mM stock solutions.
MTT assays: The efficacy of caPCNA peptides (caPeptides) were tested using the MTT assays: HCC1937 and HCC137+wildtype BRCA1 cells were grown in DMEM 1× (supplemented with 10% fetal bovine serum and 5% penicillin/streptomycin) and were plated at a densities of 5.5×10^3 or 7×10^3, respectively, in 96 well plates (100 μL total volume per well) and allowed to attach overnight in a 37° C. incubator (5% CO2). Then, caPCNA peptide stock solution was diluted to final working concentrations in DMEM 1× (10% fetal bovine serum and 5% penicillin/streptomycin) of 150 μM, 100 μM, 75 μM, 50 and 25 μM. Media was removed from cells and replaced with media containing caPCNA peptide at various concentrations (200 μL total volume per well). Cells were cultured with caPCNA peptide-containing media for 24, 48 or 72 hours. At the appropriate treatment timepoint, 20 μL MTT (5 mg/mL in PBS) reagent was added to each well and plates were incubated for an additional 4 hours. Media/dye solution was then aspirated and 200 μL DMSO was added to each well. Plates were rocked at room temperature for five minutes to dissolve crystals and transferred to an ELISA plate reader. Absorbance was measured at 550 nm. The extent to which caPeptides inhibited cell proliferation was calculated as a percentage of the absorbance in each well containing caPCNA peptide relative to wells containing no caPCNA peptide (negative control) for both HCC1937 and HCC1937+wild-type BRCA1 cells.
Efficacy of P129A (SEQ ID NO: 3) and Q131A (SEQ ID NO: 5) caPCNA peptides: Cells were cultured and plated in 96 well plates as described herein. P129A (SEQ ID NO: 3) or Q131A (SEQ ID NO: 5) stock solution was diluted to final working concentrations in DMEM 1× (10% fetal bovine serum and 5% penicillin/streptomycin) of 100 μM, 75 μM, 50 μM, 25 μM, and 12.5 μM. Media was removed from cells and replaced with media containing P129A (SEQ ID NO: 3) or Q131A (SEQ ID NO: 5) caPCNA peptides at various concentrations (200 μL total volume per well) and cells were cultured with peptide-containing media for 24 hours. After 24 hours, the MTT assay was completed and data analysis was performed as described herein. […]

[3] = system: HCC1937 cells; assay: Clonogenic survival assay after caPCNA peptide treatment; assay type: cell-based, human; settings: 100 μM peptide for 48 hours, 13 days growth; effect more pronounced than in cells with wild-type BRCA1
Protocol: (§1) Clonogeizic survival assay: Clonogenic survival after caPCNA peptide treatment: The purpose of this experiment was to determine the effects of high caPCNA peptide treatment (100 μM caPCNA peptide for 48 hours) on ability of cells plated at low density to proliferate and form colonies. HCC1937 and HCC1937+wild-type BRCA1 cells were plated in 6-well plates and allowed to attach overnight at 37° C.
(§2) Then, media was removed and replaced with 100 μM caPCNA peptide in DMEM 1× (10% fetal bovine serum and 5% penicillin/streptomycin). Untreated cells were used as a negative control. Plates were incubated with media containing peptide for 48 hours. Live cells were then collected, counted, plated at low density ([…] cells in 10 cm2 dishes) and allowed to grow in DMEM 1× (20% fetal bovine serum, 5% penicillin/streptomycin) for 13 days. After 13-day incubation, media was removed and plates were washed twice with 1×PBS. Cells were fixed with 70% EtOH for 10 minutes, dried, and stained for 1 hour with 20% Giemsa diluted in MilliQ water. Dye was removed; plates were rinsed, dried overnight and photographed. Images shown are representative of results obtained for treated and untreated HCC1937 and HCC1937+wild-type BRCA1 cells.

[4] = system: HCC1937+wild-type BRCA1 cells; assay: as above; assay type: cell-based, human; settings: 100 μM peptide for 48 hours, 13 days growth
Protocol: as §1, §2

[5] = system: MCF 10A (non-malignant); assay: Preferential killing of cancer cells by R9-caPeptide; assay type: cell-based
[6] = system: MCF 7 (breast cancer); assay: as above; assay type: cell-based
[7] = system: HCC1937+wild-type BRCA1 cells; assay: MTT assay, caPCNA peptides alone and in combination with cisplatin; assay type: cell-based, human
Protocol: As a genetically matched control, wild-type BRCA1 has been transduced into HCC1937 cells (referred to as HCC1937+wild-type BRCA1). HCC1937+wild-type BRCA1 cells were selected for maintenance of the vector using 1 μg/mL puromycin. All cells in these assays were used at passage numbers <25.
MTT [3-(4,5-dimethylthiazol-2-yl)-2,5-diphenyltetrazolium bromide] assays were conducted with caPCNA peptides at a variety of time points both alone and in combination with a DNA damaging agent e.g., cisplatin in HCC1937 and HCC1937+wild-type BRCA1 cells. […] The color can then be quantified using a simple colorimetric assay. The results are read on a multiwall scanning spectrophotometer (ELISA reader). […]
MTT assays: The efficacy of caPCNA peptides (caPeptides) were tested using the MTT assays: HCC1937 and HCC137+wildtype BRCA1 cells were grown in DMEM 1× (supplemented with 10% fetal bovine serum and 5% penicillin/streptomycin) and were plated at a densities of 5.5×10^3 or 7×10^3, respectively, in 96 well plates (100 μL total volume per well) and allowed to attach overnight in a 37° C. incubator (5% CO2). […] Plates were rocked at room temperature for five minutes to dissolve crystals and transferred to an ELISA plate reader. Absorbance was measured at 550 nm. […]

[8] = HCC1937 and HCC1937+wild-type BRCA1 cells, 24 hours

In the case of “A7-sub. Peptide: R9-linked caPCNA 126-133 peptide with alanine at position 7, E132 (SEQ ID NO: 65) (RRRRRRRRRLGIPEQAY; R9 linked)”, the “Effect of alanine substitution on cytotoxic action of the peptide (in words)” value (from here on “Effect of alanine substitution”) [1] is reported as “increase in cytotoxicity”.
With “A2-sub. Peptide: R9-linked caPCNA 126-133 peptide with alanine at position 2, G127 (SEQ ID NO: 60) (RRRRRRRRRLAIPEQEY; R9 linked)” the “Effect of alanine substitution” value [1] was “neutral change”.
With “A4-sub. Peptide: R9-linked caPCNA 126-133 peptide with alanine at position 4, P129 (SEQ ID NO: 62) (RRRRRRRRRLGIAEQEY; R9 linked)” the “Effect of alanine substitution” value [1] was “increase in cytotoxicity”.
With “caPCNA peptide: caPCNA-derived peptide (aa 126-133) obtained from Anaspec; the figure legends call it R9-caPCNA / R9-PCNA peptide (LGIPEQEY; also: R9 (nonaarginine) linked, site not given here; UniProt P12004 126-133, looked up, fragment)” the “Sensitivity of cells to caPCNA peptides (MTT)” value ([2]; HCC1937 in comparison to HCC1937+wild-type BRCA1 cells, 24, 48 and 72 hour treatment) was “trend of increased sensitivity”, the Colony formation [3] was “inhibits colony formation” and the Colony formation [4] was “inhibits colony formation”.
For “R9-caPeptide: R9 (nonaarginine)-linked caPCNA peptide of Table 6; exact sequence not printed there (LGIPEQEY; also: linked to nonaarginine (R9), site not given here; UniProt P12004 126-133, looked up, fragment) [Peptide R9-caPeptide]”, the “% Dead Cells” value [5] was 18.2% and the “% Dead Cells” value [6] was 91.5%.
In the case of LGIAEQEY [Peptide P129A], the “Efficacy in comparison to wild-type peptides (MTT)” value [2, 8] is reported as “enhanced efficacy”.
In the case of `N.N.[Cl][Pt][Cl]` [cisplatin, reference compound], the IC50 ([2]; HCC1937 cells lacking BRCA1, cisplatin alone, FIG. 4A, read-out: IC50 value for cisplatin alone (growth inhibition)) is reported as ~155 µM, the “Sensitivity of cells to cisplatin (MTT)” value ([2]; HCC1937 cells, FIG. 3A) is reported as “relatively resistant” and the “Sensitivity of cells to cisplatin (MTT)” value ([7]; HCC1937+wild-type BRCA1 cells, FIG. 3B) is reported as “relatively resistant”. The IC50 ([7]; HCC1937 cells with BRCA1, cisplatin alone, FIG. 4B, read-out: IC50 value for cisplatin alone (growth inhibition)) was > 200 µM.
In the case of “A6-sub. Peptide: R9-linked caPCNA 126-133 peptide with alanine at position 6, Q131 (SEQ ID NO: 64) (RRRRRRRRRLGIPEAEY; R9 linked)”, the “Effect of alanine substitution” value [1] is reported as “increase in cytotoxicity”.
With “A8-sub. Peptide: R9-linked caPCNA 126-133 peptide with alanine at position 8, Y133 (SEQ ID NO: 66) (RRRRRRRRRLGIPEQEA; R9 linked)” the “Effect of alanine substitution” value [1] was “reduced cytotoxic activity”.
With “A1-sub. Peptide: R9-linked caPCNA 126-133 peptide with alanine at position 1, L126 (SEQ ID NO: 59) (RRRRRRRRRAGIPEQEY; R9 linked)” the “Effect of alanine substitution” value [1] was “reduced cytotoxic activity”.
For LGIPEAEY [Peptide Q131A], the “Efficacy in comparison to wild-type peptides (MTT)” value [2, 8] was “enhanced efficacy” and the “Rank of efficacy among the peptides tested (MTT)” value [2, 8] was “appears to be more effective of these peptides tested”.
In the case of “A5-sub. Peptide: R9-linked caPCNA 126-133 peptide with alanine at position 5, E130 (SEQ ID NO: 63) (RRRRRRRRRLGIPAQEY; R9 linked)”, the “Effect of alanine substitution” value [1] is reported as “neutral change”.
In the case of “Unsub. Peptide: R9-linked caPCNA 126-133 peptide LGIPEQEY, unsubstituted (SEQ ID NO: 58) (RRRRRRRRRLGIPEQEY; R9 linked)”, the “% cancer cell death” value ([1]; flow cytometry) is reported as 43 ± 10%.
In the case of “A3-sub. Peptide: R9-linked caPCNA 126-133 peptide with alanine at position 3, I128 (SEQ ID NO: 61) (RRRRRRRRRLGAPEQEY; R9 linked)”, the “Effect of alanine substitution” value [1] is reported as “decrease in cytotoxic action but not to the levels of aa126 or aa133”.
